Test results taken from patent US20250108062A1, “VITAMIN NANOCLUSTERS AS THERAPEUTIC AND NUTRACEUTIC AGENTS AND CARRIERS” (FONDAZIONE ISTITUTO ITALIANO DI TECNOLOGIA, priority 2022, published 2025).

System: Bone Marrow Derived Monocytes (BMDM)
Experiment: MTT cell viability / toxicity on BMDMs
Conditions: 24, 48, 72 h, all tested concentrations
Experimental: After 24, 48, or 72 h of incubation, the culture medium was removed, a MTT solution was added to each well according to the manufacturer's instruction. The absorbance of formazan crystals dissolved in EtOH was quantified using a microplate spectrophotometer at a wavelength of 570 nm, using 650 nm as the reference wavelength (Tecan, Mannedorf, Swiss). The percentage of cell viability was assessed according to the following equation:
where, Abst was the absorbance of treated cells and Abs, was the absorbance of control (untreated) cells.

SMILES: C=C1CC[C@H](O)C/C1=C/C=C1\CCC[C@]2(C)[C@@H]([C@H](C)CCCC(C)C)CC[C@@H]12 [free Vitamin D3, Vitamin D3]
- cytotoxicity (MTT cell viability): do not induce a significant cytotoxicity
